In patent US20160022718A1, “METHODS OF LOWERING BLOOD PRESSURE” (LEXICON PHARMACEUTICALS, INC., priority 2010, published 2016):

Test system: patients with type 2 diabetes mellitus
Experiment: randomized, double-blind, placebo controlled Phase 2a clinical trial, 28 days once daily oral dosing
Assay type: in vivo, human
Settings: for Change in Weight, change from baseline / Seated Diastolic BP, change from baseline / Seated Systolic BP, change from baseline / Serum Triglyceride, change from baseline: four-week treatment; for Change in Weight, change from baseline: placebo −2.2; for Seated Diastolic BP, change from baseline: placebo −2.9; for Seated Systolic BP, change from baseline: placebo −4.3; for Serum Triglyceride, change from baseline: placebo −20.2; for reduction of average percent HbA1c after four weeks of dosing: placebo 0.49; for reduction in fasting plasma glucose level at week four: placebo 15.1 mg/dl
Experimental: Certain aspects of this invention may be understood with reference to the figures, which provide results obtained from a randomized, double-blind, placebo controlled Phase 2a clinical trial, wherein 150 mg and 300 mg doses of a compound of the invention were orally administered once daily to patients with type 2 diabetes mellitus.
This invention is based, in part, on findings—provided herein—obtained from a randomized, double-blind, placebo controlled Phase 2a clinical trial, wherein 150 mg/day and 300 mg/day doses of a dual SGLT1/2 inhibitor were administered to patients with type 2 diabetes mellitus. The dual SGLT1/2 inhibitor was (2S,3R,4R,5S,6R)-2-(4-chloro-3-(4-ethoxybenzyl)phenyl)-6-(methylthio)tetrahydro-2H-pyran-3,4,5-triol, which has the structure:
Patients (n=36) with type 2 diabetes mellitus received one of two oral doses of (2S,3R,4R,5S,6R)-2-(4-chloro-3-(4-ethoxybenzyl)phenyl)-6-(methylthio)tetrahydro-2H-pyran-3,4,5-triol, given as 150 mg or 300 mg once daily, or matching placebo, for 28 days.
In this study, patients on metformin were taken off of the drug 16 days prior to day 0, the day dosing first began.

[1] = both treatment groups (150 mg/day and 300 mg/day)

CCOc1ccc(Cc2cc([C@@H]3O[C@H](SC)[C@@H](O)[C@H](O)[C@H]3O)ccc2Cl)cc1 [(2S,3R,4R,5S,6R)-2-(4-chloro-3-(4-ethoxybenzyl)phenyl)-6-(methylthio)tetrahydro-2H-pyran-3,4,5-triol]
Change in Weight, change from baseline (150 mg (n = 12)): −3.4%
Seated Diastolic BP, change from baseline (150 mg (n = 12)): −5.8 mmHg
Seated Systolic BP, change from baseline (150 mg (n = 12)): −10.3 mmHg
Serum Triglyceride, change from baseline (150 mg (n = 12)): -66.6 mg/dL
reduction of average percent HbA1c after four weeks of dosing (150 mg dose group, p=0.036, baseline 8.22%): 1.15%
reduction in fasting plasma glucose level at week four (150 mg dose group): 53.4 mg/dL
dose-limiting toxicities (150 mg or 300 mg once daily, 28 days): no evidence of dose-limiting toxicities was observed
adverse events (150 mg or 300 mg once daily, 28 days, evenly distributed across all dose groups, including placebo): generally mild
insulin sensitivity, homeostatic model assessment (HOMA) (FIG. 4) (150 mg/day and 300 mg/day groups vs placebo, day 27): improved insulin sensitivity
mean plasma glucose AUC (FIG. 3) (150 mg/day and 300 mg/day groups, after one day of treatment): statistically significant decreases
Change in Weight, change from baseline (300 mg (n = 12)): −3.7%
Seated Diastolic BP, change from baseline (300 mg (n = 12)): −5.3 mmHg
Seated Systolic BP, change from baseline (300 mg (n = 12)): −13.1 mmHg
Serum Triglyceride, change from baseline (300 mg (n = 12)): -62.8 mg/dL
reduction of average percent HbA1c after four weeks of dosing (300 mg dose group, p=0.017, baseline 8.50%): 1.25%
percentage of patients achieving fasting plasma glucose levels of <105 mg/dl at week four (300 mg dose group, p=0.037 vs placebo): 42%
reduction in fasting plasma glucose level at week four (300 mg dose group): 65.9 mg/dL
share of patients with HbA1c levels reduced to less than or equal to 7% (both dose groups (150 mg and 300 mg), four weeks): half
glucosuria over the 28-day dosing period compared to placebo (both dose levels (150 mg and 300 mg once daily, oral), preliminary data): significant and sustained glucosuria
glucose tolerance vs placebo group (FIG. 2) [1]: greater glucose tolerance
mean arterial pressure, day 28 compared to baseline (FIG. 10) [1]: decreased
post-prandial glucose levels compared to placebo (FIG. 5) [1]: rapid, statistically significant decrease
